Source: patent US20240115654A1, “INTRAVENOUS ADMINISTRATION OF ENGINEERED ANTIMICROBIAL AMPHIPHILIC PEPTIDES” (priority 2021, published 2024)
Values after ≈ are worked out from the molar mass of the structure shown. Peptide text beside a SMILES is read from it.

System: Enterococcus faecium isolates (n = 104)
Experiment: microbe, parasite or virus in culture
Procedure: Comparator antibiotics were supplied by Micromyx, and stock solutions were prepared on the first day of testing using solvents recommended by CLSI (1). Stock solutions of all compounds were made at 40× the final testing concentration and stored at −80° C. prior to testing. Information regarding compound source, catalog and lot number, testing concentrations and drug diluent for the comparators and test agent are detailed below in Table 3.
The test organisms evaluated in this study consisted of clinical isolates from the Micromyx Repository and reference isolates from the American Type Culture Collection (ATCC; Manassas, VA). The clinical isolates were obtained from USA hospitals. Upon initial receipt at Micromyx, the organisms were sub-cultured onto an appropriate agar medium. Following incubation, colonies were harvested from these plates and cell suspensions prepared and frozen at −80° C. with a cryoprotectant. […] Plates were incubated at 35° C. overnight.
MIC values were determined using a broth microdilution procedure described by CLSI (1, 3).
The test articles and comparator compounds (300 μl at 40× the highest concentration to be tested) were dispensed into the appropriate wells in column 1. The Biomek 2000 was then used to make 2-fold serial dilutions in the mother plates from column 1 through column 11. The wells of Column 12 contained no drug and served as the organism growth control wells for the assay.
The daughter plates were completed on the Biomek FX instrument which transferred 5 μL of drug solution from each well of a mother plate to the corresponding well of each daughter plate in a single step. A standardized inoculum of each test organism was prepared per CLSI methods (1). The inoculum for each organism was dispensed into sterile reservoirs divided by length (Beckman Coulter), and the Biomek 2000 was used to inoculate the plates. Daughter plates were placed on the Biomek 2000 work surface in reverse orientation so that inoculation took place from low to high drug concentration.
Plates were stacked 3-4 high, covered with a lid on the top plate, placed in plastic bags, and incubated at 35° C. for 16 to 20 hrs. Following incubation, the microplates were removed from the incubator and viewed from the bottom using a plate viewer. […] The MIC was read and recorded as the lowest concentration of drug that inhibited visible growth of the organism.
Clinical breakpoints to determine percent resistance within a given organism group were obtained from CLSI (3), with the exception of colistin for K. pneumoniae, Enterobacter spp., and E. coli, which are only available from EUCAST.

In the case of `CC(C)[C@H](NC(=O)[C@H](Cc1c[nH]c2ccccc12)NC(=O)[C@H](CCCNC(=N)N)NC(=O)[C@H](CCCNC(=N)N)NC(=O)[C@@H](NC(=O)[C@@H](NC(=O)[C@H](CCCNC(=N)N)NC(=O)[C@@H](NC(=O)[C@@H](NC(=O)[C@H](CCCNC(=N)N)NC(=O)[C@H](CCCNC(=N)N)NC(=O)[C@H](Cc1c[nH]c2ccccc12)NC(=O)[C@@H](NC(=O)[C@H](CCCNC(=N)N)NC(=O)[C@H](CCCNC(=N)N)NC(=O)[C@@H](NC(=O)[C@H](CCCNC(=N)N)NC(=O)[C@H](CCCNC(=N)N)NC(=O)[C@@H](NC(=O)[C@H](Cc1c[nH]c2ccccc12)NC(=O)[C@H](CCCNC(=N)N)NC(=O)[C@@H](N)CCCNC(=N)N)C(C)C)C(C)C)C(C)C)C(C)C)C(C)C)C(C)C)C(C)C)C(=O)N[C@@H](CCCNC(=N)N)C(=O)N[C@@H](CCCNC(=N)N)C(N)=O` [SEQ ID NO: 1] (H-RRWVRRVRRVWRRVVRVVRRWVRR-NH2), the MIC50 (Enterococcus faecium (n = 104)) is reported as 1 µg/mL (≈ 0.294 µM), the MIC90 (Enterococcus faecium (n = 104)) is reported as 2 µg/mL (≈ 0.588 µM) and the “Mode (MIC)” value (Enterococcus faecium (n = 104)) is reported as 1 µg/mL. It also gave an MIC50 (isolates (n = 104)) of 0.5 µg/mL (≈ 0.147 µM), an MIC90 (isolates (n = 104)) of 1 µg/mL (≈ 0.294 µM) and an MIC range (isolates (n = 104)) of 0.25 to 2 µg/mL.
